These results are taken from paper PMC12587574, “Mass balance, pharmacokinetics, metabolism, and excretion of radiolabeled acoziborole, a potential novel treatment for human African trypanosomiasis, following single microtracer oral dose to humans” (Antimicrobial Agents and Chemotherapy, 2025).

Where only a bound is given, the exact number is not on record here.

Data set [1] can be described thus: Distribution study of [14C]-acoziborole in Sprague-Dawley rats. As to conditions: 10 mg/kg (200 µCi/kg). It is filed as in vivo.
A further data set relates to T.b. gambiense. Also on record: method as in PMID 21738803. Particulars: oral 5–25 mg/kg/day; acute and chronic infection; cited from earlier work.

With `CC1(C)OB(O)c2cc(NC(=O)c3ccc(F)cc3C(F)(F)F)ccc21` [acoziborole], in data set [1] (female rats), the “radioactivity collected in feces during 7 days, share of total radioactivity” value is listed as more than 73%; the “radioactivity in combined feces and urine during 7 days, share of total radioactivity” value is recorded as more than 86%. In data set [1] (male rats), the “radioactivity collected in feces during 7 days, share of total radioactivity” value is “over 66%”; the “radioactivity in combined feces and urine during 7 days, share of total radioactivity” value was “over 85%”. For the same compound, in the data set with T.b. gambiense, the “effect on survival of infected mice” value is “significantly prolong survival” and the “outcome of oral treatment in infected mice” value is reported as “curative”.
